# Results: US9603928B2, “Medicinal composition for promoting synthesis of protoporphyrin IX” (SBI Pharmaceuticals Co., Ltd., priority 2013, dated 2017)
# Legend:
# Type in all cases: cell-based
# [1] = test system: Multi-drug resistant Pseudomonas aeruginosa (MDRP: ATCC BAA-2110); experiment: HPLC measurement of coproporphyrinogen III (CPIII) and protoporphyrin IX (PpIX) in MDRP cultured with ALA / ALA + EDTA; settings: 4 hours after start of culture, ALA 0.5 mg/ml, EDTA 400 mg/ml where added
# Protocol: Multi-drug resistant Pseudomonas aeruginosa (MDRP: ATCC BAA-2110) was placed in tryptic soy broth medium (TBS: from DIFCO), and cultured at 37° C. for 24 hours. With an absorptiometer, the TBS medium comprising the cultured MDRP was adjusted to 1×10^9 CFU (Colony forming unit)/ml. In a 12-well plate, the following solutions (1)-(3) were each prepared and cultured. (1): TBS medium comprising MDRP adjusted to 1×10^9 CFU/ml, (2): a solution of (1) and ALA added to a final concentration of 0.5 mg/ml, and (3): a solution of (1) and ALA added to a final concentration of 0.5 mg/ml and EDTA added to a final concentration of 400 mg/ml. The solutions were collected 4 hours after the start of culture, and suspended in 0.25 ml of PBS per 1 g of the pelleted bacteria. To 0.2 ml of the suspension, 0.01 ml of 50% acetic acid and 0.9 ml of DMF/IPA (100:1) were added, vortexed, and separated by centrifugation (14, 000 rpm, 5 min, 4° C.). The concentrations of coproporphyrinogen III (CPIII) and protoporphyrin IX (PpIX) in the supernatant after centrifugal separation were measured with HPLC.
# [2] = test system: Multi-drug resistant Pseudomonas aeruginosa (MDRP: BAA-2110); experiment: Number of MDRP bacteria after ALA + chelating agent other than EDTA with or without LED irradiation (PDT); settings: Irradiation No, average values
# Protocol: Multi-drug resistant Pseudomonas aeruginosa (MDRP: BAA-2110) was cultured in tryptic soy broth medium (TBS: from DIFCO) for 24 hours at 37° C. Next, the TBS medium comprising MDRP was dispensed in a 12-well dish at 1 ml per well (1×10^4−2×10^5 CFU/mL). ALA at a final concentration of 1 mg/ml and a chelating agent other than EDTA (2.5 mg/mL of citric acid, 2.5 mg/mL of malic acid, 1 mg/mL of diethylenetriaminepentaacetic acid (DTPA), 1 mg/mL of triethylenetetramine-N,N,N′,N″,N′″,N″′-hexaacetic acid, 1 mg/mL of N-(2-hydroxyethyl) iminodiacetic acid, and 1 mg/mL of deferoxamine mesylate, each at final concentration) were added to each dish. For the control group, only ALA at a final concentration of 1 mg/ml was added to 1 ml of the TBS medium comprising MDRP. Next, these were cultured for 5 hours, and the number of bacteria in each well was counted. The PDT group was cultured for 5 hours, and then irradiated with LED (410 nm) at 50 J/cm^2, after which the number of bacteria was counted, and further the number of bacteria at 19 hours after irradiation was also counted.
# [3] = test system: Multi-drug resistant Pseudomonas aeruginosa (MDRP: ATCC BAA-2110); experiment: Number of MDRP bacteria after ALA + EDTA with or without PDT (LED 410 nm); settings: no PDT, 18 hours of culture, ALA 1 mg/ml, EDTA 400 mg/ml where added, start 1×10^9 CFU/ml
# Protocol: Multi-drug resistant Pseudomonas aeruginosa (MDRP: ATCC BAA-2110) was cultured for 24 hours at 37° C. with tryptic soy broth medium (TBS: from DIFCO). Then, the TBS medium comprising MDRP at 1×10^9 CFU/ml was dispensed in a 12-well plate at 1 ml per well, and ALA was added to a final concentration of 1 mg/ml and EDTA was added to a final concentration of 400 mg/ml. These were divided into the group subjected to PDT (PDT group) and the group not subjected to PDT (non-PDT group) (each n=1). For the control group, only ALA at a final concentration of 1 mg/ml was added to 1 ml of the TBS medium comprising MDRP at 1×10^9 CFU/ml, and PDT was not carried out. The control group and the non-PDT group were cultured for 18 hours, and the number of bacteria in each well was counted. The PDT group was cultured for 18 hours, irradiated with LED (410 nm) at 50 J/cm^2, and then the number of bacteria was counted.
# [4] = supernatant of bacterial extract, HPLC
compound,measurement,setting,value
"NCC(=O)CCC(=O)O [ALA, 5-aminolevulinic acid]",proportion of PpIX against CPIII,[1],approximately 5.5%
same,CPIII,[1]; [4],889.6 nM
same,PpIX,[1]; [4],49.0 nM
same,5 hours after addition of ALA + chelating agent (CFU/mL),[2]; ALA 1 mg/ml,3.6 × 10^5 CFU/mL
same,19 hours after irradiation (CFU/mL),[2]; ALA 1 mg/ml,1.4 × 10^9 CFU/mL
same,At the time of culture (CFU/mL),[2]; starting count,5.7 × 10^4 CFU/mL
same,Bacterial count (CFU/ml),[3]; listed as Control,4.2 × 10^9 CFU/ml
same,Bacterial count (CFU/ml),[3]; listed as control,4.2×10^9 CFU/ml
